In patent publication US20230382926A1, “COMPOUNDS AND USES THEREOF” (The University of The West Indies, priority 2022, published 2023):

Legend:
[1] = test system: clinical isolate CR-K. pneumoniae 7225; assay: Non-lethal mouse peritonitis infection model; type: in vivo, Swiss albino mice
Description: (§1) For both lethal and non-lethal infection models involving Carbapenem resistant Klebsiella pneumoniae suitable strains, number of mice per treatment and bacterial infection dose were predetermined in preliminary experiments.
Each mouse (n=6 per group) received an intraperitoneal (i.p.) injection of 200 μl of bacterial suspension (1×10^4 CFU ml^−1).
Mice were then treated once daily for two subsequent days (i.e. 24 h and 48 h). Twenty-four-hours after the last dose, the mice were euthanized via cervical dislocation and their spleen and liver excised, homogenized in PBS and plated onto Hichrome™ Klebsiella selective media (HiMedia Laboratories, PA, USA). The plates were incubated at 35° C. for 24 h and bacterial counts were determined (CFU g^−1 organ).
Based on the significance of the SP-azaBIMs to restore the in vitro efficacy of antibiotics against high priority pathogenic bacteria, we examined if these compounds could provide proof of concept that they could be used to treat in vivo infections. To test this, we performed both non-lethal and lethal intraperitoneal infection models in Swiss Albino mice.
There was a significant reduction in the K. pneumoniae load in both the liver (FIG. 2a) and spleen (FIG. 2b) for the combination therapies compared to the respective antibiotic monotherapies. […] Colistin (Col) (10 mg kg^−1) was used as the positive control in this case. K. pneumoniae load in the liver (FIG. 2a) and spleen (FIG. 2b) was determined by selective plating on Hichrome™ Klebsiella selective media. Data bars represent the average (n=6 mice per treatment group)±standard error.

K. pneumoniae 7225 = assay: Lethal peritonitis infection model (survival); type: in vivo, Swiss albino mice; conditions: for Survival in lethal K. pneumoniae infection: each 10 mg kg^−1 s.c.
Description: as §1
For the lethal peritonitis infections, mice were treated as in the non-lethal infection studies except the inoculation dose was 2×10^7 CFU mL^−1 K. pneumoniae 7225. The mice were then divided into the previously listed treatment regimens and treatment was provided every 24 h for two days after infection. Mice were monitored for mortality for 7 days and the moribund mice were euthanized humanely using cervical dislocation.
For survival experiments, Swiss albino mice were given lethal doses of K. pneumoniae 7225 (C) (2×10^7 CFU ml^−1) via i.p. injection. Mice were treated the same as in the non-lethal peritonitis experiments and mortality was monitored for 7 days. Data lines represent the percent of mice (n=10 mice per treatment group) that survived daily. […]

[2] = test system: Klebsiella pneumoniae ATCC BAA-2814; assay: Gene expression analysis by quantitative reverse transcription PCR; type: cell-based
Description: Cell treatment and RNA extraction: Overnight cultures of Klebsiella pneumoniae ATCC BAA-2814 grown on Brain Heart Infusion (BHI) agar was harvested and washed in phosphate buffer saline (pH=7.4) twice. Fresh Brain Heart infusion broth was inoculated with K. pneumoniae cells to a final concentration of 10^6 CFU mL^−1. Cells were subjected to the following treatments: T0—Vehicle only (ddH2O); T1—Meropenem only (0.25 MIC; 8 μg mL^−1); T2—Meropenem 0.25 MIC+SP-azaBIM 136 (2 ug mL^−1). Treated cells were incubated at 35° C. at 200 rpm and total RNA was extracted at 1 h and 6 h post exposure using TRIzol reagent (Life Technologies) following the manufacturer's protocol before eluting in DEPC treated water. Three biological replicates were included for each treatment.
Quantitative reverse transcription PCR analysis: Reverse transcription was done using the GoScript Reverse Transcriptase Kit (Promega, USA) employing a mixture (1:1) of random and oligo dT primers with 2 μg RNA as starting material in a 20-μL reaction following the manufacturers protocols. cDNA samples were then quantified by real-time PCR using specific primers in an Applied Biosystems 7500 Fast Real-Time PCR system (Life Technologies Corp., USA) and the data analysed using the 2^(−ΔΔct) method. Thermal cycling was performed using a two-step PCR amplification standard procedure at 95° C. for 30 s and 35 cycles of 95° C. for 5 s and 60° C. for 30 s. The expression levels of all the genes were normalized using the K. pneumoniae RNA polymerase sigma factor (rpoD) gene as an internal standard.
To examine this hypothesis, we investigated the expression of genes in K. pneumoniae ATCC […] that were affected by SP-azaBIM 136 treatment. Expression of key transcription factors and their associated downstream resistance and pathogenicity genes was examined in Klebsiella pneumoniae cells treated with meropenem and a combination of meropenem and SP-azaBIM 136. Cells in the exponential phase were either treated with 0.25 MIC (8 μg mL^−1) of Meropenem only or a combination of 0.25 MIC meropenem and 10 μg mL^−1 of SP-azaBIM 136. Untreated cells served as the control for baseline gene expression. Cells were exposed to each agent for 1 h and 6 h, after which the total RNA was extracted, and cDNA synthesis performed. […] The addition of SP-azaBIM 136 was theorized to revert the expression of the relevant genes closer to baseline expression levels.

[3] = co-administered with Meropenem 10 mg kg^−1, SP-azaBIM 136 10 mg kg^−1 s.c. at 1, 24, 48 h, versus Meropenem only
[4] = combination with Ciprofloxacin 10 mg kg^−1, SP-azaBIM 136 10 mg kg^−1 s.c., compared to Ciprofloxacin only
[5] = Meropenem 0.25 MIC + SP-azaBIM 136, 6 h
[6] = addition of SP-azaBIM 136 to meropenem, versus meropenem only

For `Oc1ccc(C(c2c[nH]c3cnccc23)c2c[nH]c3cnccc23)cc1` [SP-6azaBIM 136, 4-(bis(1H-pyrrolo[2,3-c]pyridin-3-yl)methyl)phenol], the “K. pneumoniae load in the organs” value ([1]; SP-azaBIM 136 on its own, 10 mg kg^−1) was “not able to reduce K. pneumoniae load in the organs”, the “Reduction of bacterial cells in the liver” value [1, 3] was 41 fold and the “Reduction of bacterial cells in the spleen” value [1, 3] was 14 fold. The “Reduction of bacterial cells in the liver” value [1, 4] was about 53 fold, the “Reduction of bacterial cells in the spleen” value [1, 4] was about 12 fold and the “Protection to lethal infections” value (K. pneumoniae 7225; SP-azaBIM 136 on its own) was “nor provide any protection to lethal infections”. The “Survival in lethal K. pneumoniae infection” value (K. pneumoniae 7225; co-treatment with Ciprofloxacin, 7 days) was 100%, the “Survival in lethal K. pneumoniae infection” value (K. pneumoniae 7225; co-treatment with Meropenem, 7 days) was 90% and the “Mortality in lethal K. pneumoniae infection” value (K. pneumoniae 7225; monotherapy 10 mg kg^−1 s.c., 2×10^7 CFU ml^−1 i.p., 7 days) was 100%. The “ROB gene expression relative to baseline levels” value ([2]; Meropenem 0.25 MIC + SP-azaBIM 136 (2 ug mL^−1, 10 μg mL^−1 elsewhere in the source), 1 h) was 0.35 times that of baseline levels, the “soxS gene expression compared to untreated cells” value ([2]; Meropenem 0.25 MIC + SP-azaBIM 136, 1 h) was 0.28 fold and the “ROB gene expression relative to baseline levels” value [2, 5] was 1.4 fold. The “soxS gene expression compared to untreated cells” value [2, 5] was 0.76 fold, the “Expression of extended spectrum beta-lactamases and carbapenemase gene KPC” value ([2]; Meropenem + SP-azaBIM 136) was “significantly suppressed” and the TEM-1 gene expression ([2]; Meropenem + SP-azaBIM 136) was “no significant variation in expression”. For the same molecule, the “marA regulatory gene expression response” value ([2]; Meropenem + SP-azaBIM 136) was “not as profound as the other two genes”, the “Virulence gene expression (fimH, entB, iutA, rpmA)” value ([2]; SP-azaBIM 136 added to meropenem, 1 h and 6 h) was “expression decreased significantly” and the “Reduction in mexA gene expression” value [2, 6] was 17 fold. The “Reduction in norB gene expression” value [2, 6] was 4.5 fold.
